Results published in ChEMBL document CHEMBL3885881, “DrugMatrix”.

Species on record: Rattus norvegicus
Assay: DrugMatrix - Regimen: Daily Repeat
Type: toxicity, organism-based, Sprague-Dawley
Design: regimen Daily Repeat, gender Male, age 6-8 weeks
Details: in vivo, po, route oral GAVAGE, […]; for ABSOLUTE BASOPHIL / ABSOLUTE EOSINOPHIL / ABSOLUTE LYMPHOCYTE / ABSOLUTE MONOCYTE / ABSOLUTE SEGMENTED NEUTROPHIL / BASOPHIL / EOSINOPHIL / ERYTHROCYTE COUNT / HEMATOCRIT / HEMOGLOBIN / LEUKOCYTE COUNT / LYMPHOCYTE / MEAN CORPUSCULAR HEMOGLOBIN / MEAN CORPUSCULAR HEMOGLOBIN CONCENTRATION / MEAN CORPUSCULAR VOLUME / MONOCYTE / NEUTROPHIL / NUCLEATED RED BLOOD CELLS / PLATELET COUNT: tissue Blood; for ALANINE AMINOTRANSFERASE / ALBUMIN / ALKALINE PHOSPHATASE / ASPARTATE AMINOTRANSFERASE / BLOOD UREA NITROGEN / CARBON DIOXIDE / CHLORIDE / CHOLESTEROL / CREATINE PHOSPHOKINASE / CREATININE / GLUCOSE / LACTATE DEHYDROGENASE / LIPASE / POTASSIUM / SODIUM / TOTAL BILIRUBIN / TOTAL PROTEIN / URIC ACID: tissue Plasma
[1] = 0 mg/kg, 72 h, dose level Control, time 3 day
[2] = 0 mg/kg, 120 h, dose level Control, time 5 day
[3] = 3 mg/kg, 72 h, dose level Low, time 3 day
[4] = 3 mg/kg, 120 h, dose level Low, time 5 day

`CCc1ccc(CCOc2ccc(CC3SC(=O)NC3=O)cc2)nc1` (configuration not stated) [PIOGLITAZONE] was tested, and the “ABSOLUTE BASOPHIL” value [1] was 0 CELLS/uL, the “ABSOLUTE EOSINOPHIL” value [1] was 22.83 CELLS/uL and the “ABSOLUTE LYMPHOCYTE” value [1] was 11213.33 CELLS/uL. For the same compound, the “ABSOLUTE MONOCYTE” value [1] was 169.83 CELLS/uL, the “ABSOLUTE SEGMENTED NEUTROPHIL” value [1] was 960.67 CELLS/uL and the BASOPHIL [1] was 0%. The EOSINOPHIL [1] was 0.17%, the “ERYTHROCYTE COUNT” value [1] was 5.34 x10E6/uL and the HEMATOCRIT [1] was 33.62%. The HEMOGLOBIN [1] was 13.17 G/DL, the “LEUKOCYTE COUNT” value [1] was 12.37 x10E3/uL and the LYMPHOCYTE [1] was 90.33%. The “MEAN CORPUSCULAR HEMOGLOBIN” value [1] was 24.65 pg, the “MEAN CORPUSCULAR HEMOGLOBIN CONCENTRATION” value [1] was 39.18 G/DL and the “MEAN CORPUSCULAR VOLUME” value [1] was 62.95 fL. For the same compound, the MONOCYTE [1] was 1.5%, the NEUTROPHIL [1] was 8% and the “NUCLEATED RED BLOOD CELLS” value [1] was 0 /100WBC. For the same compound, the “ALANINE AMINOTRANSFERASE” value [1] was 56.67 u/L, the ALBUMIN [1] was 4.55 G/DL and the “ALKALINE PHOSPHATASE” value [1] was 305.17 u/L. The “ASPARTATE AMINOTRANSFERASE” value [1] was 96.5 u/L, the “BLOOD UREA NITROGEN” value [1] was 13.5 mg/dL and the “CARBON DIOXIDE” value [1] was 31 mmol/L. For the same compound, the CHLORIDE [1] was 101.67 MEQ/L, the CHOLESTEROL [1] was 75.83 mg/dL and the “CREATINE PHOSPHOKINASE” value [1] was 345.67 u/L. The CREATININE [1] was 0.28 mg/dL, the GLUCOSE [1] was 142.5 mg/dL and the “LACTATE DEHYDROGENASE” value [1] was 136.67 u/L. For the same compound, the LIPASE [1] was 10.17 u/L, the POTASSIUM [1] was 5.41 MEQ/L and the SODIUM [1] was 146.7 MEQ/L. For the same compound, the “TOTAL BILIRUBIN” value [1] was 0.13 mg/dL, the “TOTAL PROTEIN” value [1] was 6.65 G/DL and the “URIC ACID” value [1] was 0.77 mg/dL. The “ABSOLUTE BASOPHIL” value [2] was 0 CELLS/uL, the “ABSOLUTE EOSINOPHIL” value [2] was 26.33 CELLS/uL and the “ABSOLUTE LYMPHOCYTE” value [2] was 10004.33 CELLS/uL. The “ABSOLUTE MONOCYTE” value [2] was 141.33 CELLS/uL, the “ABSOLUTE SEGMENTED NEUTROPHIL” value [2] was 1161.33 CELLS/uL and the BASOPHIL [2] was 0%. The EOSINOPHIL [2] was 0.33%, the “ERYTHROCYTE COUNT” value [2] was 5.5 x10E6/uL and the HEMATOCRIT [2] was 34.8%. The HEMOGLOBIN [2] was 13.17 G/DL, the “LEUKOCYTE COUNT” value [2] was 11.33 x10E3/uL and the LYMPHOCYTE [2] was 87.83%. The “MEAN CORPUSCULAR HEMOGLOBIN” value [2] was 23.95 pg, the “MEAN CORPUSCULAR HEMOGLOBIN CONCENTRATION” value [2] was 37.83 G/DL and the “MEAN CORPUSCULAR VOLUME” value [2] was 63.28 fL. For the same compound, the MONOCYTE [2] was 1.17%, the NEUTROPHIL [2] was 10.67% and the “NUCLEATED RED BLOOD CELLS” value [2] was 0 /100WBC. The “PLATELET COUNT” value [2] was 1035.33 x10E3/uL, the “ALANINE AMINOTRANSFERASE” value [2] was 36 u/L and the ALBUMIN [2] was 4.63 G/DL. The “ALKALINE PHOSPHATASE” value [2] was 266.33 u/L, the “ASPARTATE AMINOTRANSFERASE” value [2] was 71.67 u/L and the “BLOOD UREA NITROGEN” value [2] was 11.33 mg/dL. For the same compound, the “CARBON DIOXIDE” value [2] was 30.17 mmol/L, the CHLORIDE [2] was 100.83 MEQ/L and the CHOLESTEROL [2] was 70.33 mg/dL. The “CREATINE PHOSPHOKINASE” value [2] was 226.17 u/L, the CREATININE [2] was 0.27 mg/dL and the GLUCOSE [2] was 147.83 mg/dL. The “LACTATE DEHYDROGENASE” value [2] was 111.67 u/L, the LIPASE [2] was 8 u/L and the POTASSIUM [2] was 5.14 MEQ/L. For the same compound, the SODIUM [2] was 145.48 MEQ/L, the “TOTAL BILIRUBIN” value [2] was 0.1 mg/dL and the “TOTAL PROTEIN” value [2] was 6.53 G/DL. For the same compound, the “URIC ACID” value [2] was 0.52 mg/dL, the “ABSOLUTE BASOPHIL” value [3] was 0 CELLS/uL and the “ABSOLUTE EOSINOPHIL” value [3] was 196.67 CELLS/uL. The “ABSOLUTE LYMPHOCYTE” value [3] was 13366 CELLS/uL, the “ABSOLUTE MONOCYTE” value [3] was 155.33 CELLS/uL and the “ABSOLUTE SEGMENTED NEUTROPHIL” value [3] was 1182 CELLS/uL. For the same compound, the BASOPHIL [3] was 0%, the EOSINOPHIL [3] was 1.33% and the “ERYTHROCYTE COUNT” value [3] was 5.51 x10E6/uL. For the same compound, the HEMATOCRIT [3] was 35.97%, the HEMOGLOBIN [3] was 13.93 G/DL and the “LEUKOCYTE COUNT” value [3] was 14.9 x10E3/uL. For the same compound, the LYMPHOCYTE [3] was 89.67%, the “MEAN CORPUSCULAR HEMOGLOBIN” value [3] was 25.3 pg and the “MEAN CORPUSCULAR HEMOGLOBIN CONCENTRATION” value [3] was 38.77 G/DL. For the same compound, the “MEAN CORPUSCULAR VOLUME” value [3] was 65.23 fL, the MONOCYTE [3] was 1% and the NEUTROPHIL [3] was 8%. For the same compound, the “NUCLEATED RED BLOOD CELLS” value [3] was 0 /100WBC, the “PLATELET COUNT” value [3] was 1174 x10E3/uL and the “ALANINE AMINOTRANSFERASE” value [3] was 60.33 u/L. The ALBUMIN [3] was 4.03 G/DL, the “ALKALINE PHOSPHATASE” value [3] was 427.33 u/L and the “ASPARTATE AMINOTRANSFERASE” value [3] was 94.33 u/L. For the same compound, the “BLOOD UREA NITROGEN” value [3] was 8.67 mg/dL, the “CARBON DIOXIDE” value [3] was 32.67 mmol/L and the CHLORIDE [3] was 103.67 MEQ/L. The CHOLESTEROL [3] was 64.67 mg/dL, the “CREATINE PHOSPHOKINASE” value [3] was 625.67 u/L and the CREATININE [3] was 0.22 mg/dL. The GLUCOSE [3] was 155.67 mg/dL, the “LACTATE DEHYDROGENASE” value [3] was 125.67 u/L and the LIPASE [3] was 12.33 u/L. For the same compound, the POTASSIUM [3] was 6.21 MEQ/L, the SODIUM [3] was 145.77 MEQ/L and the “TOTAL BILIRUBIN” value [3] was 0.13 mg/dL. For the same compound, the “TOTAL PROTEIN” value [3] was 5.33 G/DL, the “URIC ACID” value [3] was 1.63 mg/dL and the “ABSOLUTE BASOPHIL” value [4] was 0 CELLS/uL. For the same compound, the “ABSOLUTE EOSINOPHIL” value [4] was 37 CELLS/uL, the “ABSOLUTE LYMPHOCYTE” value [4] was 11883.67 CELLS/uL and the “ABSOLUTE MONOCYTE” value [4] was 95.33 CELLS/uL. The “ABSOLUTE SEGMENTED NEUTROPHIL” value [4] was 1150.67 CELLS/uL, the BASOPHIL [4] was 0% and the EOSINOPHIL [4] was 0.33%. For the same compound, the “ERYTHROCYTE COUNT” value [4] was 5.61 x10E6/uL, the HEMATOCRIT [4] was 36.33% and the HEMOGLOBIN [4] was 14.47 G/DL. The “LEUKOCYTE COUNT” value [4] was 13.17 x10E3/uL, the LYMPHOCYTE [4] was 90.33% and the “MEAN CORPUSCULAR HEMOGLOBIN” value [4] was 25.8 pg. For the same compound, the “MEAN CORPUSCULAR HEMOGLOBIN CONCENTRATION” value [4] was 39.83 G/DL, the “MEAN CORPUSCULAR VOLUME” value [4] was 64.8 fL and the MONOCYTE [4] was 0.67%. For the same compound, the NEUTROPHIL [4] was 8.67%, the “NUCLEATED RED BLOOD CELLS” value [4] was 0 /100WBC and the “PLATELET COUNT” value [4] was 1242.33 x10E3/uL. The “ALANINE AMINOTRANSFERASE” value [4] was 58.33 u/L, the ALBUMIN [4] was 4.03 G/DL and the “ALKALINE PHOSPHATASE” value [4] was 346.67 u/L. For the same compound, the “ASPARTATE AMINOTRANSFERASE” value [4] was 87.67 u/L, the “BLOOD UREA NITROGEN” value [4] was 13 mg/dL and the “CARBON DIOXIDE” value [4] was 30.67 mmol/L. For the same compound, the CHLORIDE [4] was 101 MEQ/L, the CHOLESTEROL [4] was 64.67 mg/dL and the “CREATINE PHOSPHOKINASE” value [4] was 464 u/L. For the same compound, the CREATININE [4] was 0.13 mg/dL, the GLUCOSE [4] was 150.33 mg/dL and the “LACTATE DEHYDROGENASE” value [4] was 542.33 u/L. For the same compound, the LIPASE [4] was 11.33 u/L, the POTASSIUM [4] was 6.64 MEQ/L and the SODIUM [4] was 142.57 MEQ/L. For the same compound, the “TOTAL BILIRUBIN” value [4] was 0.2 mg/dL, the “TOTAL PROTEIN” value [4] was 5.7 G/DL and the “URIC ACID” value [4] was 1.57 mg/dL.
